Laboratory results from patent US9815851B2, “Pyrrolo carboxamides as modulators of orphan nuclear receptor RAR-related orphan receptor-gamma (RORγ, NR1F3) activity and for the treatment of chronic inflammatory and autoimmune diseases” (PHENEX PHARMACEUTICALS AG, priority 2011, dated 2017).
Read-outs that look alike come from different tables or passages of the source.

How the values were obtained:
RORγ = biological target: T1, RORγ (UniProt P51449); test: RORγ Gal4 Reporter Gene Assay in 293T cells (firefly and renilla luciferase); type: cell-based, human
T1 sequence (P51449 1-518): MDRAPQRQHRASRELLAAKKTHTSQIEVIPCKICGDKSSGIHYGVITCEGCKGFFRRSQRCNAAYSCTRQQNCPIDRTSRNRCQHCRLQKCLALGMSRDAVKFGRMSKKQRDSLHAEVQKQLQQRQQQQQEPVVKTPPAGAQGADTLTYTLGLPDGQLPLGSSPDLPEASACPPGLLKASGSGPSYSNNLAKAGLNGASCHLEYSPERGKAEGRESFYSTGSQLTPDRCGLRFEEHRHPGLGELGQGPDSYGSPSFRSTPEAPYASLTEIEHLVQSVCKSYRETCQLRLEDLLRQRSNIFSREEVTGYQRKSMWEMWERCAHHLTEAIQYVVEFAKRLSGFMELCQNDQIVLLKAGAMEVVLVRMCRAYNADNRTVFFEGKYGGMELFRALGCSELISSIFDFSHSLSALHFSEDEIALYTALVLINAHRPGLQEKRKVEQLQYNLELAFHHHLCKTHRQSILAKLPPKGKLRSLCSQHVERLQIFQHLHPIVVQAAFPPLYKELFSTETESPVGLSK

[1] = biological target: T2, RORγ ligand binding domain (LBD) (Homo sapiens, UniProt P51449); test: TR-FRET Activity Assay (ligand sensing, RORγ-LBD / coactivator peptide interaction, LANCE); type: biochemical
T2 construct: made in house; host or cells: E. coli BL-21 (BL3), vector pDEST15
T2 sequence (P51449 269-508 limits assumed): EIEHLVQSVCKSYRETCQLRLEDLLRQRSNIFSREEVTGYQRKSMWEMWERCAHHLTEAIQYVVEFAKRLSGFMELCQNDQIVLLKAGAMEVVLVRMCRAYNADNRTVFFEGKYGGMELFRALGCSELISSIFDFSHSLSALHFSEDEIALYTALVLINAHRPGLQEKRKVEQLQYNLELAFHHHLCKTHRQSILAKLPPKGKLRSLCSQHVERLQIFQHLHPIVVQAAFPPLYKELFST

[2] = second value of the cell, Gal4 reporter gene assay in 293T cells, firefly luciferase
[3] = third value of the cell, Gal4 reporter gene assay in 293T cells, renilla normalised luciferase
[4] = first value of the cell FRET/FF/REN, TR-FRET activity assay, read-out: pIC50 (FRET) (converted)

| pIC50 (FF) (RORγ; [2]) | pIC50 (REN) (RORγ; [3]) | IC50 [1, 4] [nM] | SMILES | pIC50 (FF) (RORγ) | pIC50 (REN) (RORγ) | IC50 [1] [nM] |
| --- | --- | --- | --- | --- | --- | --- |
| 7.4 | 7.4 | 1260 | Cc1c(C(=O)NC2COC2)cc(-c2cc(C(=O)NC(C)C)cc(C(C)(C)C)c2)n1CC1CCCCC1 [15/6] |  |  |  |
|  |  |  | Cc1c(C(=O)NCC(C)(C)O)cc(-c2cc(C(=O)NC(C)(C)C)cc(C(C)(C)C)c2)n1CC1CCCCC1 [15/8] | 6.0/7.3/7.4 | 6.0/7.3/7.4 | 1000 |
| 6.9 | 7.0 | 1000 | Cc1c(C(=O)NCC(C)(C)O)cc(-c2cc(C(=O)NC(C)C)cc(C(C)(C)C)c2)n1CC1CCCCC1 [15/9] |  |  |  |
|  |  |  | Cc1c(C(=O)NC2CCOCC2)cc(-c2ccc(S(=O)(=O)N(CC(F)(F)F)C(C)(C)C)c(C(C)(C)C)c2)n1CC1CCCCC1 [17/1] | 5.9/8.0/7.9 | 5.9/8.0/7.9 | 1260 |
|  |  |  | Cc1c(C(=O)NCCC[S+](C)[O-])cc(-c2cc(C(C)(C)C)c3c(c2)C2(CCO3)CC2)n1CC1CCCCC1 (stereo not drawn) [17/2] | 6.0/6.6/6.5 | 6.0/6.6/6.5 | 1000 |
|  |  |  | Cc1c(C(=O)NCCCCCS(C)(=O)=O)cc(-c2cc(C(C)(C)C)c3c(c2)C2(CCO3)CC2)n1CC1CCCCC1 [17/4] | 6.2/6.7/6.7 | 6.2/6.7/6.7 | 631 |
|  |  |  | Cc1c(C(=O)NN2CCOCC2)cc(-c2cc(C(C)(C)C)c3c(c2)C2(CCO3)CC2)n1CC1CCCCC1 [17/9] | 6.2/6.8/6.8 | 6.2/6.8/6.8 | 631 |
|  |  |  | Cc1c(C(=O)NCC2CCS(=O)(=O)CC2)cc(-c2cc(C(C)(C)C)c3c(c2)C2(CCO3)CC2)n1CC1CCCCC1 [17/10] | 6.4/7.6/7.6 | 6.4/7.6/7.6 | 398 |
|  |  |  | Cc1c(C(=O)NCC2(S(C)(=O)=O)CCOCC2)cc(-c2cc(C(C)(C)C)c3c(c2)C2(CCO3)CC2)n1CC1CCCCC1 [17/11] | 6.7/7.2/7.2 | 6.7/7.2/7.2 | 200 |
|  |  |  | Cc1c(C(=O)NC2(C)COC2)cc(-c2cc(C(C)(C)C)c3c(c2)C2(CCO3)CC2)n1CC1CCCCC1 [17/13] | 6.2/6.8/6.9 | 6.2/6.8/6.9 | 631 |
| 5.9 | 5.7 | 1260 | Cc1c(C(=O)NCC2COCCN2C)cc(-c2cc(C(C)(C)C)c3c(c2)C2(CCO3)CC2)n1CC1CCCCC1 (stereo not drawn) [17/14] |  |  |  |
| 7.2 | 7.1 | 794 | Cc1c(C(=O)NC2CCS(=O)(=O)C2)cc(-c2cc(C(C)(C)C)c3c(c2)C2(CCO3)CC2)n1CC1CCCCC1 (stereo not drawn) [17/15] |  |  |  |
| 6.1 | 6.0 | 3980 | Cc1c(C(=O)NCc2nc(C(=O)O)co2)cc(-c2cc(C(C)(C)C)c3c(c2)C2(CCO3)CC2)n1CC1CCCCC1 [17/16] |  |  |  |
|  |  |  | Cc1c(C(=O)NCc2nc(C(N)=O)co2)cc(-c2cc(C(C)(C)C)c3c(c2)C2(CCO3)CC2)n1CC1CCCCC1 [17/17] | 6.1/6.3/6.4 | 6.1/6.3/6.4 | 794 |
|  |  |  | Cc1c(C(=O)NCc2cocn2)cc(-c2cc(C(C)(C)C)c3c(c2)C2(CCO3)CC2)n1CC1CCCCC1 [17/18] | 6.0/6.1/6.1 | 6.0/6.1/6.1 | 1000 |
| 7.5 | 7.5 | 794 | Cc1c(C(=O)NCC(C)(C)CC(=O)O)cc(-c2cc(C(C)(C)C)c3c(c2)C2(CCO3)CC2)n1CC1CCCCC1 [17/19] |  |  |  |

| pIC50 (FF) (RORγ; [2]) | pIC50 (REN) (RORγ; [3]) | IC50 [1, 4] [nM] | SMILES | pIC50 (FF) (RORγ) | pIC50 (REN) (RORγ) | IC50 [1] [nM] |
| --- | --- | --- | --- | --- | --- | --- |
| 7.1 | 7.1 | 398 | Cc1c(C(=O)NCC(C)(C)CC(N)=O)cc(-c2cc(C(C)(C)C)c3c(c2)C2(CCO3)CC2)n1CC1CCCCC1 [17/20] |  |  |  |
|  |  |  | Cc1c(C(=O)NC2CC(=O)C2)cc(-c2cc(C(C)(C)C)c3c(c2)C2(CCO3)CC2)n1CC1CCCCC1 [17/21] | 6.2/7.0/6.9 | 6.2/7.0/6.9 | 631 |
| 5.8 | 5.7 | 3160 | Cc1c(C(=O)NC2SC(=O)NC2=O)cc(-c2cc(C(C)(C)C)c3c(c2)C2(CCO3)CC2)n1CC1CCCCC1 (stereo not drawn) [17/24] |  |  |  |
|  |  |  | Cc1c(C(=O)NC2C[S+]([O-])C2)cc(-c2cc(C(C)(C)C)c3c(c2)C2(CCO3)CC2)n1CC1CCCCC1 (stereo not drawn) [17/25] | 6.5/6.9/7.0 | 6.5/6.9/7.0 | 316 |
| 7.3 | 7.3 | 1580 | Cc1c(C(=O)NCC(C)(C)C(=O)NS(C)(=O)=O)cc(-c2cc(C(C)(C)C)c3c(c2)C2(CCO3)CC2)n1CC1CCCCC1 [17/26] |  |  |  |
| 6.8 | 6.7 | 1260 | Cc1c(C(=O)NCC(C)(C)NC(=O)CCC(=O)O)cc(-c2cc(C(C)(C)C)c3c(c2)C2(CCO3)CC2)n1CC1CCCCC1 [17/29] |  |  |  |
| 7.7 | 7.7 | 251 | Cc1c(C(=O)NCC(C)(C)NC(=O)CO)cc(-c2cc(C(C)(C)C)c3c(c2)C2(CCO3)CC2)n1CC1CCCCC1 [17/30] |  |  |  |
|  |  |  | Cc1c(C(=O)NCC(C)(C)NC(=O)CCO)cc(-c2cc(C(C)(C)C)c3c(c2)C2(CCO3)CC2)n1CC1CCCCC1 [17/31] | 6.0/7.3/7.3 | 6.0/7.3/7.3 | 1000 |
|  |  |  | COCCS(=O)(=O)NC(C)(C)CNC(=O)c1cc(-c2cc(C(C)(C)C)c3c(c2)C2(CCO3)CC2)n(CC2CCCCC2)c1C [17/32] | 6.7/7.2/7.2 | 6.7/7.2/7.2 | 200 |
| 7.1 | 7.2 | 631 | Cc1c(C(=O)NCC(C)(C)NS(=O)(=O)C2CC2)cc(-c2cc(C(C)(C)C)c3c(c2)C2(CCO3)CC2)n1CC1CCCCC1 [17/33] |  |  |  |
| 7.0 | 6.9 | 1580 | Cc1c(C(=O)NCC2(C(=O)NCCCO)CCOCC2)cc(-c2cc(C(C)(C)C)c3c(c2)C2(CCO3)CC2)n1CC1CCCCC1 [17/34] |  |  |  |
| 6.4 | 6.3 | 1580 | Cc1c(C(=O)NCC(C)(C)NC(=O)CC2SC(=O)NC2=O)cc(-c2cc(C(C)(C)C)c3c(c2)C2(CCO3)CC2)n1CC1CCCCC1 (stereo not drawn) [17/35] |  |  |  |
| 6.7 | 6.7 | 1000 | Cc1c(C(=O)NCC2(O)CC[S+]([O-])CC2)cc(-c2cc(C(C)(C)C)c3c(c2)C2(CCO3)CC2)n1CC1CCCCC1 (stereo not drawn) [17/38] |  |  |  |
|  |  |  | Cc1c(C(=O)N(C)CC2(O)CCOCC2)cc(-c2cc(C(C)(C)C)c3c(c2)C2(CCO3)CC2)n1CC1CCCCC1 [17/39] | 6.4/6.9/6.8 | 6.4/6.9/6.8 | 398 |
| 6.9 | 6.8 | 1260 | Cc1c(C(=O)NCC2(C(=O)O)CCOCC2)cc(-c2cc(C(C)(C)C)c3c(c2)C2(CCO3)CC2)n1CC1CCCCC1 [17/40] |  |  |  |

| SMILES | pIC50 (FF) (RORγ; [2]) | pIC50 (REN) (RORγ; [3]) | IC50 [1, 4] [nM] | pIC50 (FF) (RORγ) | pIC50 (REN) (RORγ) | IC50 [1] [nM] |
| --- | --- | --- | --- | --- | --- | --- |
| Cc1c(C(=O)NC[C@H]2CCCO2)cc(-c2cc(C(C)(C)C)c3c(c2)C2(CCO3)CC2)n1CC1CCCCC1 [17/5] | 6.4 | 6.4 | 316 |  |  |  |
| Cc1c(C(=O)NC[C@@H]2CCCO2)cc(-c2cc(C(C)(C)C)c3c(c2)C2(CCO3)CC2)n1CC1CCCCC1 [17/6] | 6.4 | 6.5 | 251 |  |  |  |
| Cc1c(C(=O)NCC2(CO)COC2)cc(-c2cc(C(C)(C)C)c3c(c2)C2(CCO3)CC2)n1CC1CCCCC1 [17/8] | 7.2 | 7.2 | 794 |  |  |  |
| Cc1c(C(=O)NCC2CCS(=O)(=O)C2)cc(-c2cc(C(C)(C)C)c3c(c2)C2(CCO3)CC2)n1CC1CCCCC1 (stereo not drawn) [17/12] | 7.2 | 7.4 | 200 |  |  |  |
| Cc1c(C(=O)NC2CC(C)(O)C2)cc(-c2cc(C(C)(C)C)c3c(c2)C2(CCO3)CC2)n1CC1CCCCC1 (stereo not drawn) [17/22] | 6.5 | 6.6 | 1000 |  |  |  |
| Cc1c(C(=O)NCC(O)C(F)(F)F)cc(-c2cc(C(C)(C)C)c3c(c2)C2(CCO3)CC2)n1CC1CCCCC1 (stereo not drawn) [17/23] | 6.6 | 6.6 | 1260 |  |  |  |
| CC(=O)NC(C)(C)CNC(=O)c1cc(-c2cc(C(C)(C)C)c3c(c2)C2(CCO3)CC2)n(CC2CCCCC2)c1C [17/28] | 7.4 | 7.4 | 251 |  |  |  |
| Cc1c(C(=O)NCC2(O)COC2)cc(-c2cc(C(C)(C)C)c3c(c2)C2(CCO3)CC2)n1CC1CCCCC1 [17/36] | 6.9 | 6.9 | 794 |  |  |  |
| Cc1c(C(=O)NCC2(O)CCSCC2)cc(-c2cc(C(C)(C)C)c3c(c2)C2(CCO3)CC2)n1CC1CCCCC1 [17/37] | 7.1 | 7.1 | 1260 |  |  |  |
| Cc1c(C(=O)NCC2(C(N)=O)CCOCC2)cc(-c2cc(C(C)(C)C)c3c(c2)C2(CCO3)CC2)n1CC1CCCCC1 [17/41] | 8.1 | 8.2 | 398 |  |  |  |
